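A five-concentration, 48-hour dose response in 96-well plates underlies each endpoint, interpolated linearly between surrounding concentrations. The concentration for full growth arrest is given as TGI.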
How the values were obtained:
Test in all cases: NCI anticancer screen, dose series, 48 h
[1] = tested on: RXF-631 renal
[2] = tested on: SNB-78 CNS
[3] = tested on: XF 498 CNS
[4] = tested on: BT-549 breast
[5] = tested on: HS 578T breast
[6] = tested on: MDA-N
[7] = tested on: PC-3 prostate
[8] = tested on: T-47D breast

SMILES	TGI [1]	TGI [2]	TGI [3]	TGI [4]	TGI [5]	TGI [6]	TGI [7]	TGI [8]
N#C/C(=C\c1cccc(O)c1)C(N)=O	> 100 µM	> 100 µM	> 100 µM	–	–	–	–	–
CCCCCCCCCCCCCC(=O)CBr	33.7 µM	30.9 µM	–	22.6 µM	52.4 µM	25 µM	16.3 µM	18.7 µM
CCCCCCCCCCCCCCCC(=O)OCC1OC(n2c(O)c(N=NC(N)=S)c3ccc([N+](=O)[O-])cc32)C(OC(C)=O)C1OC(C)=O (configuration not stated)	> 100 µM	> 100 µM	> 100 µM	–	–	–	–	–
O=C(CN1CCN(c2ccccc2)CC1)N1CCc2c([nH]c3ccccc23)C1c1cccnc1 (configuration not stated)	> 94.5 µM	> 100 µM	71.8 µM	–	–	–	–	–
CC1=C(O)C(=O)C2C(=O)C1C(C)C2c1ccc(Cl)cc1 (configuration not stated)	> 100 µM	> 100 µM	> 100 µM	–	–	–	–	–
O=C(O)c1cc(=O)c2[nH]c3ccccc3c2s1	> 100 µM	> 100 µM	> 100 µM	–	–	–	–	–
CSc1nc2c(nc(N)n2C2OCC(O)C(O)C2O)c(=O)n1C (configuration not stated)	> 100 µM	> 100 µM	> 100 µM	–	–	–	–	–
Cc1ccc(NC(=O)/C(=N\Nc2ccc([N+](=O)[O-])cc2[N+](=O)[O-])C2C(=O)NC(=O)NC2=O)cc1	> 100 µM	> 100 µM	–	–	–	–	–	–
CN(C)CCCN1CCc2c([nH]c3ccccc23)C1c1cccnc1 (configuration not stated)	> 100 µM	> 100 µM	> 100 µM	–	–	–	–	–
Cc1cc(=O)oc2cc3c(cc12)Oc1ccccc1O3	> 100 µM	> 100 µM	> 10 µM	–	–	–	–	–
COc1nc2nccc-2c2occn12	> 100 µM	> 100 µM	> 100 µM	–	–	–	–	–
CCOC(=O)NN1C(=O)C(=P(c2ccccc2)(c2ccccc2)c2ccccc2)C(C(=O)OCC)=C1C	> 100 µM	> 100 µM	> 100 µM	–	–	–	–	–
COc1ccc(NC(=O)c2cc(OC)c(OC)c(OC)c2)cc1	> 100 µM	> 100 µM	> 100 µM	–	–	–	–	–
COc1ccc2oc3cccc(NCCN(C)C)c3c(=O)c2c1	32.4 µM	36 µM	28 µM	–	–	–	–	–
S=c1[nH]c2ccc(Br)cc2c(=S)n1-c1ccccc1	> 100 µM	> 100 µM	36.6 µM	–	–	–	–	–
CCCCCCCCCc1cc(=O)c2ccc(O)cc2o1	> 100 µM	> 100 µM	> 100 µM	–	–	–	–	–
Cc1cccc(C(C)C)c1NC(=O)C(=O)CC(=O)c1c(C)n([O-])c2ccccc2[n+]1=O	67.4 µM	> 100 µM	–	–	–	–	–	–
COc1cccc(C(=O)C2C(=O)N(C)CCc3ccccc32)c1OC (configuration not stated)	> 100 µM	–	> 100 µM	–	–	–	–	–
O=C1C2=C(c3ccccc31)C(c1ccccc1)NC(=S)N2 (configuration not stated)	> 100 µM	–	> 100 µM	–	–	–	–	–

From PubChem BioAssay (NCI)
